# According to patent US10639251B2, “Method for inhibiting or masking fishy odours” (Symrise AG, priority 2015, dated 2020):
# “And” between values parts separate entries of the source, which are not always exact repeats. Identical values can stand only once. “Also recorded” adds a separate entry of the source. Like-named read-outs stand apart in the source and are kept apart here.
# Tests used:
# [1] = target: T1, hTAAR5 (Homo sapiens, UniProt O14804); test: Cre-luciferase reporter gene assay, hTAAR5-mediated responses to TMA in transfected HANA3A cells; type: cell-based; conditions: for IC50: read-out: half maximal inhibitory concentration (IC50)
# T1 construct: expressed in transfected cells; host or cells: HANA3A cells
# T1 sequence (O14804 1-337): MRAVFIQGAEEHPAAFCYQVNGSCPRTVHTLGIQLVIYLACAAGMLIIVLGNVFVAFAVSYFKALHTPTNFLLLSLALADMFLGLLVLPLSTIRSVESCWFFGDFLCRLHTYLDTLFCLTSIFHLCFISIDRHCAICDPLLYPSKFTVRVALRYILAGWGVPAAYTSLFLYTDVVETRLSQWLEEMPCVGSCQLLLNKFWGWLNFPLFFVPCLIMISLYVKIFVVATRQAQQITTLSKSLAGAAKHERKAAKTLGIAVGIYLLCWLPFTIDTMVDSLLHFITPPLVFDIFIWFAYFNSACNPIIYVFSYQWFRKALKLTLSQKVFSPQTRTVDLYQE
# Procedure: (§1) In order to identify suitable antagonist for TMA the protocol of Zhuang and Matsunami for measuring receptor activity with the Dual-Glo Luciferase Assay System (Promega) was adapted [see Nat. Protoc. 3(9), p. 1402-1413 (2008)]. HANA3A cells were maintained under standard conditions in DMEM supplemented with 10% FBS and 100 units/ml penicillin and streptomycin at 37° C. Cells (approximately 15,000 cells/well) were plated on poly-D-lysine-coated 96-well plates (NUNC) and transfected after 24 h with the FuGENE® HD (Promega) transfection reagent according to the manufacturer's protocol. In a 96-well plate, we placed 18 μl transfection reagent, 1-5 μg receptor plasmid, 2 μg pGL4-luciferase reporter, 1 μg pRL-TK-Renilla reporter, 0.5 μg G-protein αolf, 1 μg receptor transport protein (RTP1S) and 1 μg M3 muscarinic acetylcholine receptor (for hOR51E1) to ensure cell surface expression. Cells were stimulated 24 h after transfection for 4 h at 37° C. with test substances diluted in CD 293 medium (1×) (Life Technologies) with 2 mM L-glutamine (Life Technologies) added. After stimulation with test substances, recombinant hTAAR5 activation elevated cAMP and the subsequent expression of the cAMP-dependent reporter gene construct Cre-luciferase. Expression rates of Cre-luciferase were monitored by luminescent enzymatic reactivity. Thus, luminescence signals correlate with receptor activation. The Renilla luciferase reporter driven by a constitutively active TK-promoter (pRL-TK-Renilla) served as an internal control to determine cell viability and transfection efficiency. Firefly luciferase activity to the Renilla luciferase signal was normalized for all wells. The ratios of antagonistic stimulation were normalized to the ratios of agonist stimulation. Furthermore, mock-transfected cells were stimulated to exclude unspecific responses to the tested substances.
# To identify blocker substances for hTAAR5-mediated responses to TMA, the Cre-luciferase reporter gene assay was used. Human TAAR5-transfected HANA3A cells were stimulated with a mix of the agonist TMA (300 μM) and 100 μM of a potential blocker substance (FIG. 1).
# For more detailed information concerning the type of antagonism (competitive vs. non-competitive) in the following experiments, the pharmacological profile of Timberol® was characterized. To test the concentration dependency of the Timberol® block, a concentration-inhibition curve (FIG. 2a) was measured. The blocking effect was increased with increasing concentrations of Timberol® and decreased with increasing concentrations of the agonist TMA. The latter was reflected by a significant concentration-inhibition curve shift.
# [2] = test system: intracellular cAMP; test: Control experiments: intracellular cAMP level in hTAAR5-transfected HANA3A cells (basal and forskolin-stimulated); type: cell-based, human
# Procedure: as §1, with “The Renilla luciferase reporter driven by a constitutively active TK-promoter (pRL-TK-Renilla) served as an internal control to determine cell viability and transfection efficiency. Firefly luciferase activity to the Renilla luciferase signal was normalized for all wells. The ratios of antagonistic stimulation were normalized to the ratios of agonist stimulation. Furthermore, mock-transfected cells were stimulated to exclude unspecific responses to the tested substances.” left out
# [3] = target: T2, hOR51E1 (Homo sapiens, UniProt Q8TCB6); test: Cre-luciferase assay, hOR51E1-mediated responses to nonanoic acid; type: cell-based; set-up: expressed in transfected cells; host or cells: HANA3A cells; conditions: Timberol 30 μM; agonist below and above EC50
# T2 sequence (Q8TCB6 1-318): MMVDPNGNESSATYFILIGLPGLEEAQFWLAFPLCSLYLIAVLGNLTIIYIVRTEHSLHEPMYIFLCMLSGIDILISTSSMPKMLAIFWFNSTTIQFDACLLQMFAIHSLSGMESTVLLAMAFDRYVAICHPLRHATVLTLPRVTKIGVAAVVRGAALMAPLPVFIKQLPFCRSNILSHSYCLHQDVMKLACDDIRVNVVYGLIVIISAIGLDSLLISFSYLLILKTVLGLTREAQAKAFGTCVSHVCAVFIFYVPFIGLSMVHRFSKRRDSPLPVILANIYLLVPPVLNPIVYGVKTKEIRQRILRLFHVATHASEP
# Procedure: In order to identify suitable antagonist for TMA the protocol of Zhuang and Matsunami for measuring receptor activity with the Dual-Glo Luciferase Assay System (Promega) was adapted [see Nat. Protoc. 3(9), p. 1402-1413 (2008)]. HANA3A cells were maintained under standard conditions in DMEM supplemented with 10% FBS and 100 units/ml penicillin and streptomycin at 37° C. Cells (approximately 15,000 cells/well) were plated on poly-D-lysine-coated 96-well plates (NUNC) and transfected after 24 h with the FuGENE® HD (Promega) transfection reagent according to the manufacturer's protocol. In a 96-well plate, we placed 18 μl transfection reagent, 1-5 μg receptor plasmid, 2 μg pGL4-luciferase reporter, 1 μg pRL-TK-Renilla reporter, 0.5 μg G-protein αolf, 1 μg receptor transport protein (RTP1S) and 1 μg M3 muscarinic acetylcholine receptor (for hOR51E1) to ensure cell surface expression. […] Expression rates of Cre-luciferase were monitored by luminescent enzymatic reactivity. Thus, luminescence signals correlate with receptor activation. […]
# Another experiment was directed to figure out whether the Timberol® block is exclusively mediated by hTAAR5. […] Then the impact of Timberol® on MOR42-3- and hOR51E1-mediated responses to the respective agonists was tested with concentrations below and above the calculated EC50 values. […]
smiles,measurement,setting,value
"CCCC(O)CCC1C(C)CCCC1(C)C (stereo not drawn) [Timberol®, Norlimbanol]",block of average hTAAR5 responses,[1]; 30 μM Timberol,at least 50%
same,block of hTAAR5 response,"[1]; 30 μM Timberol, 30 μM TMA",~78%
same,block of hTAAR5 response,"[1]; 30 μM Timberol, 100 μM TMA",~56%
same,blocking effect,"[1]; 100 μM Timberol, 30 μM TMA",~96% and 96%±1.7%
same,blocking effect,"[1]; 100 μM Timberol, 100 μM TMA",86%±3.6%
same,inhibition of hTAAR5 responses to TMA,"[1]; 100 μM Timberol, 300 μM TMA",72%±6%
same,IC50,[1]; TMA 30 μM,16.6 µM
same,IC50,[1]; TMA 100 μM,27.8 µM
same,reduction / inhibition of hTAAR5-mediated TMA responses,"[1]; TMA 300 μM, putative antagonist 100 μM",nearly completely block
same,basal cAMP production,[2]; Timberol (100 μM) alone vs unstimulated controls,No significant reduction; also recorded: did not affect
same,cAMP levels after forskolin,[2]; Timberol (100 μM) mixed with 10 μM forskolin vs forskolin alone,no significant difference; also recorded: did not affect
same,blocking effect on hOR51E1-mediated responses to nonanoic acid,[3],no any significant impact; also recorded: No significant blocking effects
